Each compound was assayed against T1, acetylcholine muscarinic M1 receptor (Homo sapiens, UniProt P11229) (assay: muscarinic FLIPR assay: potentiation of acetylcholine (EC20)-stimulated intracellular Ca2+ in CHOnfat/hM1 cells). Details: not given.
T1 construct: expressed in transfected cells; host or cells: CHOnfat (CHO cells, Geneticin selection)
T1 sequence (P11229 1-460): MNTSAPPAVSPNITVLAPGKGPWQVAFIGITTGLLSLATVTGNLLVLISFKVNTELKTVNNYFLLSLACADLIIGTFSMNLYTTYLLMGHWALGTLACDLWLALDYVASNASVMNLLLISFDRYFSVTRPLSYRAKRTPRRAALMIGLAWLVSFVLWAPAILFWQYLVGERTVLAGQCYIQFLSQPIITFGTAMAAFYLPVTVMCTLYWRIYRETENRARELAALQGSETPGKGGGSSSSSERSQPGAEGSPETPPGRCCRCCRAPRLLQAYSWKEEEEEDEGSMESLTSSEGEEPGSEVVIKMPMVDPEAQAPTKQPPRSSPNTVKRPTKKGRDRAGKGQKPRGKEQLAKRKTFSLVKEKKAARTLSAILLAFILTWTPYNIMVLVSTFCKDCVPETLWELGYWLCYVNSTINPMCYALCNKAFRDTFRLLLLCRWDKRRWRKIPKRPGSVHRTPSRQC
Format: cell-based
Description: The assay studies the effect of one or several concentrations of test compounds on basal or acetylcholine-stimulated Ca^2+ levels using FLIPR.
Compounds are prepared and subjected to a preincubation period of 4 min. Thereafter, a single EC20 concentration of acetylcholine is added to each well (3 nM final). The intracellular Ca^2+ level of each sample is measured and compared to an acetylcholine control to determine any modulatory activity.
Cells: CHOnfat/hM1, hM2, hM3 or hM4 cells are plated 24 hr before the assay at a density of 18,000 cells/well (100 μL) in a 384 well plate. CHOnfat/hM1 and CHOnfat/hM3 Growth Medium: 90% DMEM (Hi Glucose); 10% HI FBS; 2 mM L-glutamine; 0.1 mM NEAA; Pen-Strep; and 1 mg/ml Geneticin, are added. For M2Gqi5CHOnfat and M4Gqi5CHOnfat cells, an additional 600 μg/ml hygromycin is added.
Buffers. […] Dye Loading Buffer: Assay Buffer plus 1% Fetal Bovine Serum and Fluo-4AM/Pluronic Acid Mixture. […] 20% Pluronic Acid Solution stock, with a concentration of 0.04% in Buffer, 0.02% in Assay.
65 μL of 2 mM Fluo-4AM are mixed with 130 μL of 20% Pluronic Acid. The resulting solution and 650 μL FBS is added to the assay buffer for a total volume of 65 mL. Positive Controls: 4-Br-A23187: 10 mM in DMSO; final concentration 10 μM. Acetylcholine: 10 mM in water, working stock at both 20 μM and 30 μM in assay buffer, final concentration of 10 μM. This is used to check the maximum stimulation of the CHOK1/hM1 cells. 20 μM (2×) acetylcholine is added in the preincubation part of the assay, and the 30 μM (3×) stock is added in the second part. (EC20)Acetylcholine: 10 mM in water, working stock of 9 nM (3×), and final concentration in assay is 3 nM. This is used after the preincubation with test compounds. Addition of the EC20 acetylcholine to each well with a test compound will ascertain any modulator activity. 24 wells contain 3 nM acetylcholine alone as a control.
Determining Activity of Putative Compounds:
Four 96-well plates are combined into a 384-well plate using Mosquito Nanolitre Pipetting System by transferring 1 μl of serial diluted compounds to each well, and 1 mM acetylcholine (100× stock concentration) were added as a control. Using Temo, 49 μl assay buffer is added to each well of the 384-well plate right before assay.
In a 96-well Whatman 2 ml Uniplate, 9 nM acetylcholine (3×) is pipetted into wells corresponding to the screening compounds and into control wells. The 30 μM acetylcholine control (3×) is added into control wells and the 3× agonist plate is transferred into a 384-well plate.
Cells are washed three times with 100 μL of buffer, leaving 30 μL of buffer in each well. Using Multimek, 30 μL of Dye Loading Buffer is added into each well and incubated at 37° C., 5% CO2 for up to one hr.
After 60 min, the cells are washed three times with 100 μL of buffer, leaving 30 μL of buffer in each well. The cell plate, screening plate, and agonist addition plates are placed on the platform in the FLIPR and the door is closed. A signal test to check background fluorescence and basal fluorescence signal is performed. Laser intensity is adjusted if necessary.
4 min of preincubation with the test compounds is provided to determine any agonist activity on the M1 receptor by comparison to the 1 mM acetylcholine control. After preincubation, the EC20 value of acetylcholine (3 nM final) is added to determine any modulator activity.
The inflection point is calculated from the FLIPR values and is a measure of activity.
Compound `O=C(O)c1cn(Cc2ccc(-c3ccccc3)cc2)c2c(c1=O)C(NCc1ccccc1)CCC2` (stereo not shown) [Example 72] has an EC50 of 2200 nM. In the case of `COC1CCCc2c1c(=O)c(C(=O)O)cn2Cc1ccc(-c2ccccc2)cc1` (racemic) [Example 62, (±)-1-(Biphenyl-4-ylmethyl)-5-methoxy-4-oxo-1,4,5,6,7,8-hexahydroquinoline-3-carboxylic acid], the EC50 is reported as 1100 nM. `CCC1(O)CCCc2c1c(=O)c(C(=O)O)cn2Cc1ccc(-c2ccccc2)cc1` (racemic) [Example 68, (±)-1-(Biphenyl-4-ylmethyl)-5-ethyl-5-hydroxy-4-oxo-1,4,5,6,7,8-hexahydroquinoline-3-carboxylic acid] showed an EC50 of 9050 nM. With `COc1ccc(-c2ccc(Cn3cc(C(=O)O)c(=O)c4c3CCCC4O)cc2)cn1` (stereo not shown) [Example 53] the EC50 was 323 nM. With `O=C(O)c1cn(Cc2ccc(-c3ccccc3)cc2)c2c(c1=O)C(N1CCCC1)CCC2` (stereo not shown) [Example 73] the EC50 was 4100 nM. Compound `O=C(O)c1cn(C/C=C/c2ccccc2F)c2c(c1=O)C(=O)CCC2` [Example 15, 1-[(2E)-3-(2-Fluorophenyl)prop-2-en-1-yl]-4,5-dioxo-1,4,5,6,7,8-hexahydroquinoline-3-carboxylic acid] has an EC50 of 64000 nM. `O=C(O)c1cn(Cc2ccc(-c3ccccc3)cc2)c2c(c1=O)CCC2` [Example 1, 1-(Biphenyl-4-ylmethyl)-4-oxo-4,5,6,7-tetrahydro-1H-cyclopenta[b]pyridine-3-carboxylic acid] was tested, and the EC50 was 812 nM. For `CCCCNC1CCCc2c1c(=O)c(C(=O)O)cn2Cc1ccc(-c2ccccc2)cc1` (stereo not shown) [Example 71], the EC50 was 1500 nM. With `Cn1ccc2cc(-c3ccc(Cn4cc(C(=O)O)c(=O)c5c4CCCC5O)nc3)ccc21` (stereo not shown) [Example 66] the EC50 was 199 nM. With `CNC1CCCc2c1c(=O)c(C(=O)O)cn2Cc1ccc(-c2ccccc2)cc1` (stereo not shown) [Example 70] the EC50 was 8370 nM. `COc1ccccc1-c1ccc(Cn2cc(C(=O)O)c(=O)c3c2CCCC3O)cc1` (racemic) [Example 27, (±)-5-Hydroxy-1-[(2′-methoxybiphenyl-4-yl)methyl]-4-oxo-1,4,5,6,7,8-hexahydroquinoline-3carboxylic acid] gave an EC50 of 3140 nM. In the case of `N#Cc1ccc(-c2ccc(Cn3cc(C(=O)O)c(=O)c4c3CCCC4O)cc2)cc1` (stereo not shown) [Example 41], the EC50 is reported as 318 nM.

Same assay, conditions: CHOnfat/hM1 cells, FLIPR, 4 min preincubation, then EC20 acetylcholine (3 nM final); read-out: IP Value (inflection point)
`O=C(O)c1cn(Cc2ccc(-c3ccccc3)cc2)c2c(c1=O)C(=O)CCC2` [Example 6] showed an EC50 of 806 nM.
